Source: ChEMBL document CHEMBL1201862, “PubChem BioAssay data set” (2004)
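Exposure lasted 48 hours, with cells grown in 96-well plates and compounds tested at five concentrations. GI50 = concentration required for 50% inhibition of growth.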 Calls of active or inactive are those of the source. Rule as the data show it: active = GI50 up to about 1.1 µM and inactive = higher.

Assays:
Assay in all cases: growth of human tumour cells (NCI), 48 h
SK-MEL-28 = system: SK-MEL-28
SK-MEL-2 = system: SK-MEL-2
KM12 = system: KM12
A549 = system: A549
HL-60 = system: HL-60
HCC 2998 = system: HCC 2998
SK-MEL-5 = system: SK-MEL-5
HOP-92 = system: HOP-92
IGROV-1 = system: IGROV-1
RXF 393 = system: RXF 393
CAKI-1 = system: CAKI-1
SR = system: SR
NCI/ADR-RES = system: NCI/ADR-RES
SF-268 = system: SF-268
ACHN = system: ACHN
HT-29 = system: HT-29
BT-549 = system: BT-549
OVCAR-8 = system: OVCAR-8
SNB-75 = system: SNB-75

Structure (SMILES) | GI50 (SK-MEL-28) | GI50 (SK-MEL-2) | GI50 (KM12) | GI50 (A549) | GI50 (HL-60) | GI50 (HCC 2998) | GI50 (SK-MEL-5) | GI50 (HOP-92) | GI50 (IGROV-1) | GI50 (RXF 393) | GI50 (CAKI-1) | GI50 (SR) | GI50 (NCI/ADR-RES) | GI50 (SF-268) | GI50 (ACHN) | GI50 (HT-29) | GI50 (BT-549) | GI50 (OVCAR-8) | GI50 (SNB-75)
Cc1ccc(/C=N/n2c(-c3ccc(C)cc3)n[nH]c2=O)cc1 | > 100 µM (inactive) | > 100 µM (inactive) | > 100 µM (inactive) | 41 µM (inactive) | > 100 µM (inactive) | > 100 µM (inactive) | 38.1 µM (inactive) | 55.8 µM (inactive) | > 100 µM (inactive) | 23.1 µM (inactive) | 35.9 µM (inactive) | 25.4 µM (inactive) | 59.6 µM (inactive) | > 100 µM (inactive) | 79.8 µM (inactive) | > 100 µM (inactive) | 90.4 µM (inactive) | 36.7 µM (inactive) | > 100 µM (inactive)
Cc1cc(C)c2c(c1)CC1(Cc3cc(C)c(C)cc3C1=O)C2=O (centres undefined) | > 100 µM (inactive) | > 100 µM (inactive) | > 100 µM (inactive) | 59.4 µM (inactive) | 7.1 µM (inactive) | > 100 µM (inactive) | > 100 µM (inactive) | 60.5 µM (inactive) | 90.4 µM (inactive) | 44.9 µM (inactive) | > 100 µM (inactive) | 14.7 µM (inactive) | > 100 µM (inactive) | > 100 µM (inactive) | > 100 µM (inactive) | – | > 100 µM (inactive) | > 100 µM (inactive) | > 100 µM (inactive)
CCOc1cc2c(cc1O)CC[C@@H]1[C@@H]2CC[C@]2(C)C(OS(=O)OC3CC[C@@H]4[C@H]5CCc6cc(O)c(OCC)cc6[C@@H]5CC[C@@]34C)CC[C@@H]12 (some centres undefined) | 0.6 µM (active) | 0.92 µM (active) | 4.59 µM (inactive) | 0.689 µM (active) | 0.173 µM (active) | 16 µM (inactive) | 0.34 µM (active) | 0.363 µM (active) | 4.52 µM (inactive) | 1.29 µM (inactive) | 2.45 µM (inactive) | 0.182 µM (active) | 0.441 µM (active) | 2.44 µM (inactive) | 1.88 µM (inactive) | 22.6 µM (inactive) | 1.81 µM (inactive) | 1.38 µM (inactive) | 0.51 µM (active)
c1ccc2c(c1)ccn2CCc1c[nH]c2ccccc12 | > 10 µM (inactive) | > 10 µM (inactive) | > 10 µM (inactive) | > 10 µM (inactive) | > 10 µM (inactive) | > 10 µM (inactive) | > 10 µM (inactive) | > 10 µM (inactive) | > 10 µM (inactive) | 9.31 µM (inactive) | > 10 µM (inactive) | > 10 µM (inactive) | > 10 µM (inactive) | > 10 µM (inactive) | > 10 µM (inactive) | > 10 µM (inactive) | > 10 µM (inactive) | > 10 µM (inactive) | > 10 µM (inactive)
CC(=O)c1c(SCCN2CCCC2)n(-c2ccccc2)c(=S)n(-c2ccccc2)c1=O | 6.11 µM (inactive) | 21.6 µM (inactive) | 23.2 µM (inactive) | 5.82 µM (inactive) | 3.55 µM (inactive) | 3.1 µM (inactive) | 8.55 µM (inactive) | 3.27 µM (inactive) | 7.03 µM (inactive) | 2.3 µM (inactive) | 4.34 µM (inactive) | 2.28 µM (inactive) | 26.9 µM (inactive) | 16.4 µM (inactive) | 1.72 µM (inactive) | 6.62 µM (inactive) | 14.5 µM (inactive) | 9.48 µM (inactive) | 14.6 µM (inactive)
COC(=O)[C@@]12C(=O)C(C)C(=O)[C@]1(C)C(C)=C[C@H]1[C@]3(C=O)CC[C@H](OC(C)=O)C(C)(C)[C@H]3CC[C@@]12C (some centres undefined) | > 100 µM (inactive) | > 100 µM (inactive) | > 100 µM (inactive) | > 100 µM (inactive) | 17.7 µM (inactive) | > 100 µM (inactive) | > 100 µM (inactive) | > 100 µM (inactive) | – | > 100 µM (inactive) | 93.1 µM (inactive) | 7.48 µM (inactive) | > 100 µM (inactive) | > 100 µM (inactive) | > 100 µM (inactive) | > 100 µM (inactive) | > 100 µM (inactive) | > 100 µM (inactive) | > 100 µM (inactive)
C/C=C/C(CC(O)(C(F)(F)F)C(F)(F)F)=N/NC(N)=S | > 10 µM (inactive) | > 10 µM (inactive) | > 10 µM (inactive) | > 10 µM (inactive) | > 10 µM (inactive) | > 10 µM (inactive) | > 10 µM (inactive) | > 10 µM (inactive) | > 10 µM (inactive) | > 10 µM (inactive) | > 10 µM (inactive) | > 10 µM (inactive) | > 10 µM (inactive) | > 10 µM (inactive) | > 10 µM (inactive) | > 10 µM (inactive) | > 10 µM (inactive) | > 10 µM (inactive) | > 10 µM (inactive)
Nc1ncc(Cl)c(NCC2(CO)CC(CCc3ccccc3)C2)n1 (centres undefined) | > 100 µM (inactive) | > 100 µM (inactive) | > 100 µM (inactive) | > 21.1 µM (inactive) | 1.13 µM (inactive) | > 100 µM (inactive) | 0.38 µM (active) | 5.69 µM (inactive) | > 100 µM (inactive) | > 100 µM (inactive) | 12 µM (inactive) | 2.38 µM (inactive) | 3.61 µM (inactive) | > 100 µM (inactive) | 34 µM (inactive) | – | > 100 µM (inactive) | 44 µM (inactive) | 46.2 µM (inactive)
CN(N)C(=O)NCCCl | > 100 µM (inactive) | > 100 µM (inactive) | > 100 µM (inactive) | > 100 µM (inactive) | > 100 µM (inactive) | > 100 µM (inactive) | > 100 µM (inactive) | > 100 µM (inactive) | > 100 µM (inactive) | > 100 µM (inactive) | > 100 µM (inactive) | > 100 µM (inactive) | 0.021 µM (active) | > 100 µM (inactive) | > 100 µM (inactive) | > 100 µM (inactive) | > 100 µM (inactive) | – | > 100 µM (inactive)
COC[C@H]1C(=O)NCC(=O)N2N=CCC[C@H]2C(=O)N(O)[C@H](C)C(=O)O[C@@H](C(C)C)[C@H](NC(=O)[C@@](C)(O)[C@]2(O)CC[C@@H](CC(C)C)[C@H](C)O2)C(=O)N2NCCC[C@@H]2C(=O)N1O | 0.0174 µM (active) | 0.0164 µM (active) | 0.0134 µM (active) | 0.019 µM (active) | 0.0148 µM (active) | 0.0169 µM (active) | 0.0156 µM (active) | 0.0174 µM (active) | 0.0157 µM (active) | 0.0172 µM (active) | 0.133 µM (active) | 0.014 µM (active) | 0.316 µM (active) | 0.0163 µM (active) | 0.0324 µM (active) | 0.0172 µM (active) | 0.0166 µM (active) | 0.0185 µM (active) | < 0.0109 µM (active)
C/C(=N\NC(N)=S)c1sc(-n2nc(-c3ccccc3)cc2-c2ccccc2)nc1C | > 100 µM (inactive) | > 100 µM (inactive) | > 100 µM (inactive) | > 100 µM (inactive) | 54.6 µM (inactive) | > 100 µM (inactive) | 76.4 µM (inactive) | > 100 µM (inactive) | 16 µM (inactive) | > 100 µM (inactive) | > 100 µM (inactive) | 67.3 µM (inactive) | 67.1 µM (inactive) | > 100 µM (inactive) | > 100 µM (inactive) | 37.5 µM (inactive) | > 100 µM (inactive) | > 100 µM (inactive) | > 100 µM (inactive)
CC(=O)C(CN1CCOCC1)C(c1ccccc1)c1c(O)c2ccccc2oc1=O (centres undefined) | > 100 µM (inactive) | > 100 µM (inactive) | > 100 µM (inactive) | > 100 µM (inactive) | 41.3 µM (inactive) | > 100 µM (inactive) | > 100 µM (inactive) | 32 µM (inactive) | > 100 µM (inactive) | 31.6 µM (inactive) | > 100 µM (inactive) | 64.7 µM (inactive) | > 100 µM (inactive) | > 100 µM (inactive) | > 100 µM (inactive) | > 100 µM (inactive) | > 100 µM (inactive) | > 100 µM (inactive) | > 100 µM (inactive)
COC(=O)/C=C/CCC#Cc1ccccc1C#CCC/C=C/C(=O)OC | 47.5 µM (inactive) | – | 4.98 µM (inactive) | 15.3 µM (inactive) | 2.7 µM (inactive) | 50.1 µM (inactive) | – | 15.7 µM (inactive) | 4.88 µM (inactive) | 4.49 µM (inactive) | 2.88 µM (inactive) | 3.43 µM (inactive) | 8.28 µM (inactive) | 9.82 µM (inactive) | 23.7 µM (inactive) | 3.49 µM (inactive) | 7.55 µM (inactive) | 6.46 µM (inactive) | 2.89 µM (inactive)
C=[N+](CNC(=O)CNC(=O)C(Cc1ccc([N+](=O)[O-])cc1)NC(=O)OC(C)(C)C)C(=O)CNC(=O)C(Cc1ccc([N+](=O)[O-])cc1)NC(=O)OC(C)(C)C (centres undefined) | 30.1 µM (inactive) | – | 53.1 µM (inactive) | > 100 µM (inactive) | 13.3 µM (inactive) | 38.9 µM (inactive) | 35.6 µM (inactive) | 38.1 µM (inactive) | 42.4 µM (inactive) | 39.4 µM (inactive) | > 100 µM (inactive) | 24 µM (inactive) | > 100 µM (inactive) | 27.8 µM (inactive) | > 100 µM (inactive) | 49.1 µM (inactive) | 28.1 µM (inactive) | 52.7 µM (inactive) | 32.9 µM (inactive)
